Literature values as cited in US20080044462A1 (Collegium Pharmaceutical, Inc. Delaware, priority 2006, published 2008).

Details: background statement, no test described

stability in the presence of oxygen: highly unstable
Structure (SMILES): CC(NC(C)(C)C)C(=O)c1cccc(Cl)c1 (stereo not shown) [free base form of bupropion, 1-(3-chlorophenyl)-2[(1,1,dimethylethyl)amino]-1-propanone]
